According to patent publication US10632121B2, “Platelet-derived growth factor receptor mutations and compositions and methods relating thereto” (MEMORIAL SLOAN KETTERING CANCER CENTER, priority 2014, dated 2020):
Where “and” joins values, the source holds several entries; their conditions need not be identical. Equal values may be shown once.

Key:
[1] = Clinical trial: safety, adverse events (CTCAE v4.0)
[2] = clinical; settings: human, in vivo, 90 mg
[3] = system: PI3K/mTOR pathway (pS6 Ser235/6); assay: RCAS/tv-a PDGF-B-induced orthotopic glioma model, pS6 IHC; format: in vivo, mouse; settings: 60 mg/kg/day, one hour after last dose
[4] = SAR409 50 mg twice daily (N = 8)
[5] = SAR409 90 mg once daily (N = 7)

SMILES: CCn1c(=O)c(-c2cc[nH]n2)cc2c(C)nc(N)nc21 [SAR409, voxtalisib]
- Patients with any Grade 3/4 TEAE [1, 4]: 7 n (%) and 7 (87.5) n (%)
- Patients with any Grade 3/4 treatment-emergent SAE [1, 4]: 5 (62.5) n (%)
- Patients with any TEAE [1, 4]: 8 (100.0) n (%)
- Patients with any TEAE leading to dose reduction or interruption [1, 4]: 6 (75.0) n (%)
- Patients with any TEAE leading to permanent treatment discontinuation [1, 4]: 3 (37.5) n (%)
- Patients with any related Grade 3/4 TEAE [1, 4]: 4 (50.0) n (%)
- Patients with any related Grade 3/4 treatment-emergent SAE [1, 4]: 1 (12.5) n (%)
- Patients with any related TEAE [1, 4]: 8 n (%) and 8 (100) n (%)
- Patients with any related treatment-emergent SAE [1, 4]: 1 n (%) and 1 (12.5) n (%)
- Patients with any treatment emergent SAE [1, 4]: 5 n (%) and 5 (62.5) n (%)
- Patients with any Grade 3/4 TEAE [1, 5]: 4 n (%) and 4 (57.1) n (%)
- Patients with any Grade 3/4 treatment-emergent SAE [1, 5]: 1 (14.3) n (%)
- Patients with any TEAE [1, 5]: 7 (100.0) n (%)
- Patients with any TEAE leading to death [1, 5]: 0 n (%)
- Patients with any TEAE leading to dose reduction or interruption [1, 5]: 2 (28.6) n (%)
- Patients with any TEAE leading to permanent treatment discontinuation [1, 5]: 2 (28.6) n (%)
- Patients with any related Grade 3/4 TEAE [1, 5]: 4 (57.1) n (%)
- Patients with any related Grade 3/4 treatment-emergent SAE [1, 5]: 1 (14.3) n (%)
- Patients with any related TEAE [1, 5]: 7 n (%) and 7 (100.0) n (%)
- Patients with any related treatment-emergent SAE [1, 5]: 1 n (%) and 1 (14.3) n (%)
- Patients with any treatment emergent SAE [1, 5]: 1 n (%) and 1 (14.3) n (%)
- liver toxicity ([1]; SAR409 cohorts): some evidence for liver toxicity
- ALT increased leading to discontinuation from study drug ([1]; SAR409 once daily cohort): 1 patient
- ALT increased leading to dose delays ([1]; SAR409 once daily cohort): 1 patient
- study drug-related TEAE: ALT increased ([1]; SAR409 once daily cohort): 2 patients
- study drug-related TEAE: ALT increased, Grade 3 or Grade 4 ([1]; SAR409 once daily cohort): 1
- study drug-related TEAE: AST increased ([1]; SAR409 once daily cohort): 1 patient
- study drug-related TEAE: Gamma-glutamyltransferase increased ([1]; SAR409 once daily cohort): 1 patient
- ALT increased leading to discontinuation from study drug ([1]; SAR409 twice daily cohort): 1 patient
- ALT increased leading to dose delays ([1]; SAR409 twice daily cohort): 2 patients
- ALT increased leading to dose reductions ([1]; SAR409 twice daily cohort): 3 patients
- study drug-related TEAE: ALT increased ([1]; SAR409 twice daily cohort): 4 patients
- study drug-related TEAE: ALT increased, Grade 3 or 4 ([1]; SAR409 twice daily cohort): 2 patients
- study drug-related TEAE: AST increased ([1]; SAR409 twice daily cohort): 1 patient
- study drug-related TEAE: Blood bilirubin increased ([1]; SAR409 twice daily cohort): 1 patient
- drug-related TEAE: fatigue ([1]; all cohorts of the drug pooled): 9 patients
- drug-related TEAE: ALT increased ([1]; both SAR409 cohorts pooled): 6 patients
- drug-related TEAE: diarrhea ([1]; both SAR409 cohorts pooled): 2 patients
- drug-related TEAE: dysgeusia ([1]; both SAR409 cohorts pooled): 2 patients
- drug-related TEAE: hypophosphatemia ([1]; both SAR409 cohorts pooled): 3 patients
- drug-related TEAE: lipase increased ([1]; both SAR409 cohorts pooled): 3 patients
- drug-related TEAE: nausea ([1]; both SAR409 cohorts pooled): 4 patients
- patients with drug-related TEAEs ([1]; both SAR409 cohorts pooled): 15 patients
- tolerability of postoperative treatment ([1]; seventeen patients who resumed drug postoperatively): tolerated it well
- Cmax at 3 h ([2]; median intratumoral Cmax concentration): 170 nM
- Cmax at 3 h ([2]; range of intratumoral Cmax concentration): 23.1 to 751 nM
- PI3K/mTOR pathway biomarker (pS6 Ser235/6 IHC) in tumors [3]: reduced staining
- PI3K/mTOR pathway biomarker (pS6 Ser235/6 IHC) in tumors ([3]; listed as SAR245409): reduced activation
